Laboratory results as given in US12370231B2, “Compositions for inhibiting degradation of hyaluronic acid and methods of use thereof” (Epidarus Therapeutics, LLC, priority 2020, dated 2025).

What was measured:
Assay type in all cases: biochemical
[1] = target: T1, HYAL1 (Homo sapiens, UniProt Q12794); assay: HYAL1-inhibitory activity of Epidarus extracts after simulated digestion with additives/excipients; settings: test ingredient with Epidarus extracts, after simulated gastric and intestinal digestion
T1 construct: Human HYAL1 enzyme was isolated from urine following published protocols; from tissue; host or cells: human urine
T1 sequence (Q12794 22-435): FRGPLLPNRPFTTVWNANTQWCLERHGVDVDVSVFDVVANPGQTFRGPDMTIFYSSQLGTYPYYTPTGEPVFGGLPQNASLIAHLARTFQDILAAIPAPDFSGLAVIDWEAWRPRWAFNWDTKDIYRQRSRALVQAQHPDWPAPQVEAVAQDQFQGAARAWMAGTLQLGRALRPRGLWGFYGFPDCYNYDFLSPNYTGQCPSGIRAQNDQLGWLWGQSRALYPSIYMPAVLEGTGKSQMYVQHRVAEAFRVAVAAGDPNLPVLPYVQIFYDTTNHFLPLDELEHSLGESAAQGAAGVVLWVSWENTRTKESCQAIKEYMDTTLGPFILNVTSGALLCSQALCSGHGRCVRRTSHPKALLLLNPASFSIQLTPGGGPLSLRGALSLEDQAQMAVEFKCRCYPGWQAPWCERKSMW
Experimental: In order to develop bio-active formulations for osteoarthritis and bladder […] cystitis therapies in humans and animals, oral bio-availability studies were undertaken. […] Maltodextrin is a partially hydrolyzed vegetable starch and is made from corn, rice, potato starch, wheat, or other vegetable sources. […] The gastric digest was adjusted to pH 6.8 with 1M Sodium Hydroxide and mixed with an equivalent volume of Simulated Intestinal Fluid (SIF) to which was added a commercial preparation of canine pancreatic enzymes, at the following concentrations: Lipase (2,000 to 10,000 Units per ml), Protease (100 to 1,000 Units per ml), Amylase (200 to 2,000 Units per ml) and Bile Salts to 10 mM. Following the simulated complete digestion of the chew/tablet formulations, the levels of active ingredients were assayed and the HYAL1-inhibitory activity was determined. These assays were used to test a range of additives/excipients used in the production of functional nutritional supplements for human and animal use.

[2] = target: T1, HYAL1; assay: HYAL1 degradation of synovial fluid HA; settings: 12 ug Synovial Fluid HA per assay, 2 hours, 37 degrees
Experimental: Human HYAL1 enzyme was isolated from urine following published protocols (Afify, A. M. et al. Archives of Biochemistry and Biophysics 305, 434-441, 1993). The enzyme activity was calibrated and validated by comparison to commercially available recombinant human HYAL1 (R&D Systems, USA).
Synovial fluid from healthy joints is a solution of 5 to 7 mg/ml of High Molecular weight Hyaluronic Acid. The bovine metacarpopharangeal joints used in these experiments were from 2 year old steers and the synovial fluid was verified by Agarose Gel electrophoresis to be composed of predominantly High MW HA.
Degradation of Synovial Fluid by urinary HYAL1 breaks down the HA to tetra-saccharides in 2 hours at 37 degrees, using a standard HYAL1 assay, testing 12 ug Synovial Fluid HA per assay.
An extract mixture containing Star Anise Pod Extract, Linden Flower Extract and Prunella Flower Spike Extract was also tested to determine the minimum concentration of extract mix required to achieve 100% inhibition of Synovial Fluid HA under the same conditions as used for pentosan polysulfate. This concentration was determined to be 280 ng/ml.

[3] = target: T1, HYAL1; assay: Anti-HYAL1 activity of Epidarus Extract Mix after incubation with antimicrobial agents; settings: agent at 0.3%; 5 mg/ml Epidarus Extract Mix in 5% 1,3 Propanediol/Water, 48 hours, 37 degrees; relative to control without agent
Experimental: In order to achieve stable, bio-active cosmeceutical formulations, a range of commercially available cosmetic ingredients were assessed for their ability to solubilize the Prunella, Linden or Star Anise extracts or mixed extracts of Prunella, Linden or Star Anise without compromising the HYAL1—inhibitory activity of the botanical extracts. These included, for example: Sepigel 305™, Simugel 600™, Arlasolve™-DMI, Carbopol® Ultrez 21, Hydrolyte®5, Hydrolyte®6 and Zemea® 1,3 Propanediol. In addition, a number of preservative/antimicrobial compounds were similarly assessed for efficacy and effects on biological activity of the added botanical extracts. These included, for example: Phenoxyethanol, Optiphen™ (Phenoxyethanol and Caprylyl Glycol), Methylparaben and Chlorphenesin.
The antimicrobial agents were incubated in a solution of 5% 1,3 Propanediol/Water containing 5 mg/ml of Epidarus Extract Mix (Prunella, Star Anise and Linden) at the indicated concentrations for 48 hours at 37 degrees Centigrade. The anti-HYAL1 activity was measured relative to a control without added antimicrobial agents.

**Q.** `CCCCCCCCCCCCCCCCCC(=O)O` [Stearic Acid] was tested. Which “% Inhibition of anti-HYAL1 activity” value [1] did it give?
**A.** Its value is 0%.

**Q.** How did the “concentration causing 100% inhibition of HYAL1” value [2] turn out when pentosan polysulfate was run?
**A.** Its value is 156 ng/mL.

**Q.** How did the “Anti-HYAL1 Activity” value [3] turn out when `COC(=O)c1ccc(O)cc1` [Methylparaben] was run?
**A.** Its value is 45%.
